How the values were obtained:
Format in all cases: in vivo, male Fischer (F344) rats
[1] = tested on: liver injury induced by D-galactosamine; assay: Experimental Example 1b: effect on liver injury induced by D-galactosamine in rats (group I-b); conditions: Rattus norvegicus, po, 48 h, Table 1b, D-galactosamine 400 mg/kg; for inhibition in vivo at 100 mg/kg: compound 100 mg/kg in 0.5% methylcellulose; for inhibition in vivo at 50 mg/kg: values marked *: administration of 50 mg/kg
[2] = tested on: liver injury induced by D-galactosamine; assay: Experimental Example 1e: effect on liver injury induced by D-galactosamine in rats (group I-e); conditions: Rattus norvegicus, po, 48 h, Table 1e, D-galactosamine 400 mg/kg, compound 100 mg/kg in 0.5% aqueous methylcellulose
Protocol: The D-galactosamine was used in the form of a solution having a concentration of 200 mg/ml, obtained by dissolving D-galactosamine in a physiological saline solution to obtain a dilute D-galactosamine solution and adjusting the pH of the dilute solution to 7.0 with 10N aqueous potassium hydroxide. Blood was collected from the rat's tail vein 48 h after the injection of D-galactosamine. The blood coagulation time was determined by the […]) and GPT activity in the blood plasma was determined by an enzymatic method.

[3] = tested on: liver injury induced by D-galactosamine; assay: Experimental Example 1f: effect on liver injury induced by D-galactosamine in rats (group I-f); conditions: Rattus norvegicus, po, 48 h, Table 1f, D-galactosamine 400 mg/kg, compound 100 mg/kg in 0.5% methylcellulose
Protocol: (§1) 300 mg/kg of D-galactosamine was administered to male Fischer (F344) rats weighing around 180 g by subcutaneous injection to induce liver injury. Each compound was dissolved in distilled water was given by oral administration in a dose of 50 mg/kg one hour after the injection of D-galactosamine.
(§2) The D-galactosamine was used in the form of a solution having a concentration of 200 mg/ml, obtained by dissolving D-galactosamine in a physiological saline solution to obtain a dilute D-galactosamine solution and adjusting the pH of the dilute solution to 7.0 with 10N aqueous potassium hydroxide.
(§3) Blood was collected from the rat's tail vein 48 h after the injection of D-galactosamine. The blood coagulation time was determined by the hepaplastin test (HPT) and GPT activity in the blood plasma was determined by an enzymatic method.
The test was conducted in the same way as shown in Experimental Example 1a except that 400 mg/kg of D-galactosamine was administered in its physiological saline solution and each test compound was used in an amount of 100 mg/kg in 0.5% methylcellulose liquid.

[4] = tested on: liver injury induced by D-galactosamine; assay: Experimental Example 2b: inhibition of liver injury in rats (group I-b), method given as that of Experimental Example 1b; conditions: Rattus norvegicus, 48 h; Table 2b; compound 100 mg/kg oral in 0.5% methylcellulose; read-out: Inhibition ratio (%) GPT
Protocol: The test was conducted in the same manner as shown in Experimental Example 1b except that the test compound was orally administered to the rats in a dose of 100 mg/kg in 0.5% methylcellulose solution.

[5] = tested on: liver injury induced by D-galactosamine; assay: Experimental Example 1d: effect on liver injury induced by D-galactosamine in rats (group I-d); conditions: Rattus norvegicus, Table 1d, D-galactosamine 300 mg/kg s.c., compound 50 mg/kg oral in distilled water or 0.5% methylcellulose, 48 h
Protocol: as §1, §2, §3

[6] = read-out: Inhibition ratio (%) GPT
[7] = read-out: Inhibition ratio (%) HPT

SCCc1ccc2c(c1)OCO2 [Compound 1, 2-(1,3-Benzodioxol-5-yl)ethanethiol]
inhibition in vivo at 100 mg/kg [1, 6]: 91% | inhibition in vivo at 100 mg/kg [1, 7]: 96%

OCCSSCCc1ccc2c(c1)OCO2 [Compound 1, 2-[{2-(1,3-Benzodioxol-5-yl)ethyl}dithio]ethanol]
inhibition in vivo at 100 mg/kg [2, 6]: 92% | inhibition in vivo at 100 mg/kg [2, 7]: 62%

CCCC(SCC(=O)O)c1ccc2c(c1)OCO2 (centres unmarked) [Compound 1]
inhibition in vivo at 100 mg/kg [3, 6]: 84% | inhibition in vivo at 100 mg/kg [3, 7]: 100%

c1cc2c(cc1CCSSCCc1ccc3c(c1)OCO3)OCO2 [Compound 2, Bis{2-(1,3-benzodioxol-5-yl)ethyl}disulfide]
inhibition in vivo at 100 mg/kg [2, 6]: 64% | inhibition in vivo at 100 mg/kg [2, 7]: 57%

CC(C)(SCC(=O)O)c1ccc2c(c1)OCO2 [Compound 2]
inhibition in vivo at 100 mg/kg [3, 6]: 76% | inhibition in vivo at 100 mg/kg [3, 7]: 83%

O=C(OCCSSCCc1ccc2c(c1)OCO2)c1cccnc1 [Compound 3, 2-[{2-(1,3-Benzodioxol-5-yl)ethyl}dithio]ethyl nicotinate]
inhibition in vivo at 100 mg/kg [2, 6]: 92% | inhibition in vivo at 100 mg/kg [2, 7]: 62%

Cc1cc2c(cc1C(C)SCC(=O)O)OCO2 (centres unmarked) [Compound 3]
inhibition in vivo at 100 mg/kg [3, 6]: 100% | inhibition in vivo at 100 mg/kg [3, 7]: 100%

OCCSCCc1ccc2c(c1)OCO2 [Compound 3]
inhibition in vivo at 100 mg/kg [1, 6]: 97% | inhibition in vivo at 100 mg/kg [1, 7]: 94%

CCC(SCC(=O)O)c1cc2c(cc1C)OCO2 (centres unmarked) [Compound 4]
inhibition in vivo at 100 mg/kg [3, 6]: 89% | inhibition in vivo at 100 mg/kg [3, 7]: 100%

OCCCSCCc1ccc2c(c1)OCO2 [Compound 4]
inhibition in vivo at 100 mg/kg [4]: 93% | inhibition in vivo at 100 mg/kg [1, 6]: 98% | inhibition in vivo at 100 mg/kg [1, 7]: 98%

c1ccc(CCSSCCCc2ccc3c(c2)OCO3)cc1 [Compound 6, 3-(1,3-Benzodioxol-5-yl)propyl phenethyl disulfide]
inhibition in vivo at 100 mg/kg [2, 6]: 55% | inhibition in vivo at 100 mg/kg [2, 7]: 53%

COCCSCCc1ccc2c(c1)OCO2 [Compound 6]
inhibition in vivo at 100 mg/kg [1, 6]: 79% | inhibition in vivo at 100 mg/kg [1, 7]: 93%

Cc1cc2c(cc1CSCC(=O)O)OCO2 [Compound 6]
inhibition in vivo at 100 mg/kg [3, 6]: 100% | inhibition in vivo at 100 mg/kg [3, 7]: 100%

O=C(O)CSCCc1ccc2c(c1)OCO2 [Compound 8, Sodium [{2-(1,3-benzodioxol-5-yl)ethyl}thio]acetate]
inhibition in vivo at 100 mg/kg [1, 6]: 97% | inhibition in vivo at 100 mg/kg [1, 7]: 97%

O=C(O)CSCCc1ccc2c(c1)OCO2 [Compound 8]
inhibition in vivo at 100 mg/kg [4]: 53%

c1ncc(CSCCc2ccc3c(c2)OCO3)[nH]1 [Compound 8]
inhibition in vivo at 50 mg/kg [5, 6]: 28% | inhibition in vivo at 50 mg/kg [5, 7]: 61%

CCCCCCCCCSSCCCc1ccc2c(c1)OCO2 [Compound 9, 3-(1,3-Benzodioxol-5-yl)propyl nonyl disulfide]
inhibition in vivo at 100 mg/kg [2, 6]: 53% | inhibition in vivo at 100 mg/kg [2, 7]: 49%

CC(C)c1cc2c(cc1CCSCC(=O)O)OCO2 [Compound 9]
inhibition in vivo at 100 mg/kg [3, 6]: 88% | inhibition in vivo at 100 mg/kg [3, 7]: 67%

O=C(O)CCSCCc1ccc2c(c1)OCO2 [Compound 9]
inhibition in vivo at 100 mg/kg [4]: 98% | inhibition in vivo at 100 mg/kg [1, 6]: 100% | inhibition in vivo at 100 mg/kg [1, 7]: 99%

O=C(OCCSSCc1ccc2c(c1)OCO2)c1cccnc1 [Compound 10, 2-[{(1,3-Benzodioxol-5-yl)methyl}dithio]ethyl nicotinate]
inhibition in vivo at 100 mg/kg [2, 6]: 72% | inhibition in vivo at 100 mg/kg [2, 7]: 43%

O=C(O)CCCSCCc1ccc2c(c1)OCO2 [Compound 10]
inhibition in vivo at 100 mg/kg [4]: 43% | inhibition in vivo at 100 mg/kg [1, 6]: 89% | inhibition in vivo at 100 mg/kg [1, 7]: 99%

CC(C)(SCC(N)=O)c1ccc2c(c1)OCO2 [Compound 11]
inhibition in vivo at 100 mg/kg [3, 6]: 97% | inhibition in vivo at 100 mg/kg [3, 7]: 68%

CC(Cc1ccc2c(c1)OCO2)SSCCO (centres unmarked) [Compound 12, 2-[{2-(1,3-Benzodioxol-5-yl)-1-methylethyl}dithio]ethanol]
inhibition in vivo at 100 mg/kg [2, 6]: 63% | inhibition in vivo at 100 mg/kg [2, 7]: 45%

O=C(O)CCCCCSCCc1ccc2c(c1)OCO2 [Compound 12]
inhibition in vivo at 50 mg/kg [1, 6]: 69% | inhibition in vivo at 50 mg/kg [1, 7]: 75%

Cc1cc2c(cc1C(C)SCC(N)=O)OCO2 (centres unmarked) [Compound 13]
inhibition in vivo at 100 mg/kg [3, 6]: 50% | inhibition in vivo at 100 mg/kg [3, 7]: 17%

Cc1cc2c(cc1CCSCC(=O)O)OCO2 [Compound 16]
inhibition in vivo at 50 mg/kg [5, 6]: 25% | inhibition in vivo at 50 mg/kg [5, 7]: 41%

CCCC(SCC(=O)NCC(=O)O)c1ccc2c(c1)OCO2 (centres unmarked) [Compound 17]
inhibition in vivo at 100 mg/kg [3, 6]: 91% | inhibition in vivo at 100 mg/kg [3, 7]: 70%

CN(C)C(=O)CCSCCc1ccc2c(c1)OCO2 [Compound 19]
inhibition in vivo at 100 mg/kg [1, 6]: 69% | inhibition in vivo at 100 mg/kg [1, 7]: 90%

O=C(O)CNC(=O)CSCCc1ccc2c(c1)OCO2 [Compound 23]
inhibition in vivo at 100 mg/kg [1, 6]: 77% | inhibition in vivo at 100 mg/kg [1, 7]: 92%

[O-][S+](CCO)CCc1ccc2c(c1)OCO2 (centres unmarked) [Compound 27]
inhibition in vivo at 100 mg/kg [1, 6]: 54% | inhibition in vivo at 100 mg/kg [1, 7]: 65%

N#CC(SCCc1ccc2c(c1)OCO2)C(=O)O (centres unmarked) [Compound 28]
inhibition in vivo at 50 mg/kg [5, 6]: 44% | inhibition in vivo at 50 mg/kg [5, 7]: 45%

N#CC[S+]([O-])CCc1ccc2c(c1)OCO2 (centres unmarked) [Compound 33]
inhibition in vivo at 50 mg/kg [5, 6]: 82% | inhibition in vivo at 50 mg/kg [5, 7]: 78%

CC(=O)CS(=O)(=O)CCc1ccc2c(c1)OCO2 [Compound 34]
inhibition in vivo at 50 mg/kg [5, 6]: 37% | inhibition in vivo at 50 mg/kg [5, 7]: 17%

CCS(=O)(=O)CCc1ccc2c(c1)OCO2 [Compound 35]
inhibition in vivo at 50 mg/kg [5, 6]: 76% | inhibition in vivo at 50 mg/kg [5, 7]: 60%

CC(C)S(=O)(=O)CCc1ccc2c(c1)OCO2 [Compound 36]
inhibition in vivo at 50 mg/kg [5, 6]: 59% | inhibition in vivo at 50 mg/kg [5, 7]: 68%

N#CCS(=O)(=O)CCc1ccc2c(c1)OCO2 [Compound 37]
inhibition in vivo at 50 mg/kg [5, 6]: 52% | inhibition in vivo at 50 mg/kg [5, 7]: 44%

CC(=O)CSCCc1ccc2c(c1)OCO2 [Example 1, [{2-(1,3-Benzodioxol-5-yl)ethyl}thio]propan-2-one]
inhibition in vivo at 50 mg/kg [5, 6]: 89% | inhibition in vivo at 50 mg/kg [5, 7]: 100%

N#CCSCCc1ccc2c(c1)OCO2 [Example 2, [{2-(1,3-Benzodioxol-5-yl)ethyl}thio]acetonitrile]
inhibition in vivo at 50 mg/kg [5, 6]: 88% | inhibition in vivo at 50 mg/kg [5, 7]: 100%

CC(C)(SCCc1ccc2c(c1)OCO2)C(=O)O [Example 4, Sodium 2-methyl-2-[{2-(1,3-benzodioxol-5-yl)ethyl}thio]propionate]
inhibition in vivo at 50 mg/kg [5, 6]: 84% | inhibition in vivo at 50 mg/kg [5, 7]: 91%

c1cc(CSCCc2ccc3c(c2)OCO3)ccn1 [Example 6, 2-(1,3-Benzodioxol-5-yl)ethyl (pyridin-4-yl)methyl sulfide]
inhibition in vivo at 50 mg/kg [5, 6]: 64% | inhibition in vivo at 50 mg/kg [5, 7]: 76%

c1ccc(CSCCc2ccc3c(c2)OCO3)nc1 [Example 7, 2-(1,3-Benzodioxol-5-yl)ethyl (pyridin-2-yl)methyl sulfide]
inhibition in vivo at 50 mg/kg [5, 6]: 37% | inhibition in vivo at 50 mg/kg [5, 7]: 58%

CC1Oc2ccc(CCSCC(=O)O)cc2O1 (centres unmarked) [Example 12, Sodium [{2-(2-methyl-1,3-benzodioxol-5-yl)ethyl}-thio]acetate]
inhibition in vivo at 50 mg/kg [5, 6]: 85% | inhibition in vivo at 50 mg/kg [5, 7]: 85%

CCC(Cc1ccc2c(c1)OCO2)SCC(=O)O (centres unmarked) [Example 26, Sodium [[1-{(1,3-benzodioxol-5-yl)methyl}propyl]thio]acetate]
inhibition in vivo at 50 mg/kg [5, 6]: 53% | inhibition in vivo at 50 mg/kg [5, 7]: 48%

O=C(OCCSSCCCc1ccc2c(c1)OCO2)c1cccnc1 [compound 7]
inhibition in vivo at 100 mg/kg [2, 6]: 72% | inhibition in vivo at 100 mg/kg [2, 7]: 43%

CC(Cc1ccc2c(c1)OCO2)SSC(C)Cc1ccc2c(c1)OCO2 (centres unmarked) [compound 11]
inhibition in vivo at 100 mg/kg [2, 6]: 76% | inhibition in vivo at 100 mg/kg [2, 7]: 68%

From patent US5292901A, “Benzodioxole derivatives” (Eisai Co., Ltd., priority 1987, dated 1994)
